This note sets out measurements from ChEMBL document CHEMBL5331046, “Disulfiram and dithiocarbamate analogues demonstrate promising antischistosomal effects” (Eur J Med Chem, 2022).

Calls of active or inactive are those of the source. No cut-off for these calls is given here.

In data set [1] the test system is Schistosoma mansoni. The data set is described as follows: Antischistosomal activity against Schistosoma mansoni couples assessed as reduction in pairing stability at 100 uM measured upto 72 hrs by bright field microscopy. The format is functional. Details: scale not given: the % may be the effect or the level left.
For data set [2], the system named is Schistosoma mansoni. Nature of the data set: Antischistosomal activity against Schistosoma mansoni couples assessed as inhibition of eggs production at 100 uM measured upto 72 hrs by bright field microscopy. The format is functional. Details: scale not given: the % may be the effect or the level left.
In data set [3] the test system is Schistosoma mansoni. The data set is described as follows: Antischistosomal activity against Schistosoma mansoni couples assessed as decrease in parasite motility at 100 uM measured upto 72 hrs by bright field microscopy. In kind it is functional. The arrangement: scale not given: the % may be the effect or the level left.
The subject of data set [4] is Schistosoma mansoni. The data set is described as follows: Antischistosomal activity against Schistosoma mansoni couples assessed as decrease in parasite motility at 25 uM measured upto 72 hrs by bright field microscopy. Details: scale not given: the % may be the effect or the level left. The format is functional.
Data set [5] concerns HepG2. The data set is described as follows: Cytotoxicity against human HepG2 cells assessed as reduction in cell vaibility at 50 uM by WST-1 assay. In kind it is toxicity, cell-based. The following applies: hepg2, 50 µM.
For data set [6], the system named is LS174T. The data set is described as follows: Cytotoxicity against human LS174T cells assessed as reduction in cell vaibility at 50 uM by WST-1 assay. The format is toxicity, cell-based.
The subject of data set [7] is Schistosoma mansoni. Nature of the data set: Antischistosomal activity against Schistosoma mansoni couples assessed as inhibition of eggs production at 50 uM measured upto 72 hrs by bright field microscopy. The format is functional, organism-based.
For data set [8], the system named is Schistosoma mansoni. Nature of the data set: Antischistosomal activity against Schistosoma mansoni couples assessed as reduction in pairing stability at 50 uM measured upto 72 hrs by bright field microscopy. The format is functional, organism-based.
Data set [9] relates to Schistosoma mansoni. Nature of the data set: Antischistosomal activity against Schistosoma mansoni couples assessed as gut dilations at 50 uM measured upto 72 hrs by bright field microscopy. In kind it is functional, organism-based.
Data set [10] deals with Schistosoma mansoni. The data set is described as follows: Antischistosomal activity against Schistosoma mansoni couples assessed as tegument damage at 50 uM measured upto 72 hrs by bright field microscopy. In kind it is functional, organism-based.
Data set [11] deals with Schistosoma mansoni. Nature of the data set: Antischistosomal activity against Schistosoma mansoni couples assessed as intestinal dilations and tegument damage at 50 uM measured upto 72 hrs by bright field microscopy. The format is functional, organism-based.
Data set [12] concerns HepG2. Nature of the data set: Cytotoxicity against human HepG2 cells assessed as reduction in cell viability upto 50 uM by WST-1 assay. The format is toxicity, cell-based. To be noted: hepg2, 50 µM.
Data set [13] concerns LS174T. Nature of the data set: Cytotoxicity against human LS174T cells assessed as reduction in cell vaibility upto 50 uM by WST-1 assay. In kind it is toxicity, cell-based. A general note: Tetrazolium assays rely on reduction of a dye to a coloured formazan, in cell work by metabolically active cells.
The subject of data set [14] is Schistosoma mansoni. Nature of the data set: Antischistosomal activity against Schistosoma mansoni couples assessed as decrease in parasite motility at 50 uM measured upto 72 hrs by bright field microscopy. The format is functional. The arrangement: scale not given: the % may be the effect or the level left.
The subject of data set [15] is Schistosoma mansoni. The data set is described as follows: Antischistosomal activity against Schistosoma mansoni couples assessed as tegument damage at 100 uM measured upto 72 hrs by bright field microscopy. The format is functional, organism-based.
For data set [16], the system named is Schistosoma mansoni. The data set is described as follows: Antischistosomal activity against Schistosoma mansoni couples assessed as gut dilations at 100 uM measured upto 72 hrs by bright field microscopy. The format is functional, organism-based.
Data set [17] has as its system HepG2. The data set is described as follows: Cytotoxicity against human HepG2 cells assessed as reduction in cell vaibility at 100 uM by WST-1 assay. In kind it is toxicity, cell-based. The following applies: hepg2, 100 µM.
Data set [18] relates to LS174T. Nature of the data set: Cytotoxicity against human LS174T cells assessed as reduction in cell viability at 100 uM by WST-1 assay. In kind it is toxicity, cell-based.
For data set [19], the system named is Schistosoma mansoni. Nature of the data set: Antischistosomal activity against Schistosoma mansoni couples assessed as decrease in parasite motility at 10 uM measured upto 72 hrs by bright field microscopy. The format is functional, organism-based.
The subject of data set [20] is Schistosoma mansoni. The data set is described as follows: Antischistosomal activity against Schistosoma mansoni couples assessed as decrease in parasite motility at 15 uM measured upto 72 hrs by bright field microscopy. The format is functional. The arrangement: scale not given: the % may be the effect or the level left.
The test system of data set [21] is Schistosoma mansoni. Nature of the data set: Antischistosomal activity against Schistosoma mansoni couples assessed as decrease in parasite vitality at 15 uM measured upto 72 hrs by bright field microscopy. The format is functional. The arrangement: scale not given: the % may be the effect or the level left.
Data set [22] relates to Schistosoma mansoni. The data set is described as follows: Antischistosomal activity against Schistosoma mansoni couples assessed as decrease in pairing stability at 15 uM measured upto 72 hrs by bright field microscopy. The format is functional. Details: scale not given: the % may be the effect or the level left.
Data set [23] deals with Schistosoma mansoni. Nature of the data set: Antischistosomal activity against Schistosoma mansoni couples assessed as inhibition of eggs production at 15 uM measured upto 72 hrs by bright field microscopy. In kind it is functional. The arrangement: scale not given: the % may be the effect or the level left.
The test system of data set [24] is Schistosoma mansoni. The data set is described as follows: Antischistosomal activity against Schistosoma mansoni couples assessed as induction of phenotypes at 10 uM measured upto 72 hrs by bright field microscopy. In kind it is functional, organism-based.
The test system of data set [25] is Schistosoma mansoni. The data set is described as follows: Antischistosomal activity against Schistosoma mansoni couples assessed as tegument damage at 10 uM measured upto 72 hrs by bright field microscopy. In kind it is functional, organism-based.
The test system of data set [26] is Schistosoma mansoni. Nature of the data set: Antischistosomal activity against Schistosoma mansoni couples assessed as loss of internal structures at 10 uM measured upto 72 hrs by bright field microscopy. The format is functional, organism-based.
Data set [27] deals with Schistosoma mansoni. Nature of the data set: Antischistosomal activity against Schistosoma mansoni couples assessed as tegument damage at <=10 uM measured upto 72 hrs by bright field microscopy. The format is functional, organism-based.
Data set [28] has as its system Schistosoma mansoni. Nature of the data set: Antischistosomal activity against Schistosoma mansoni couples assessed as gut dilatations at <=10 uM measured upto 72 hrs by bright field microscopy. In kind it is functional, organism-based.
Data set [29] has as its system Schistosoma mansoni. The data set is described as follows: Antischistosomal activity against Schistosoma mansoni couples assessed as loss of internal structures at <=10 uM measured upto 72 hrs by bright field microscopy. In kind it is functional, organism-based.
Data set [30] relates to Schistosoma mansoni. Nature of the data set: Antischistosomal activity against Schistosoma mansoni couples assessed as reduction in parasite motility at <=10 uM measured upto 72 hrs by bright field microscopy. In kind it is functional. Details: scale not given: the % may be the effect or the level left. The following applies: up to 10 µM.
In data set [31] the test system is Schistosoma mansoni. The data set is described as follows: Antischistosomal activity against Schistosoma mansoni couples assessed as gut dilatations at 10 uM measured upto 72 hrs by bright field microscopy. In kind it is functional, organism-based.
Data set [32] deals with Schistosoma mansoni. The data set is described as follows: Antischistosomal activity against Schistosoma mansoni couples at 100 uM measured upto 72 hrs by bright field microscopy. In kind it is functional, organism-based.
For data set [33], the system named is Schistosoma mansoni. Nature of the data set: Antischistosomal activity against Schistosoma mansoni couples at 25 uM measured upto 72 hrs by bright field microscopy. The format is functional, organism-based.
For data set [34], the system named is Schistosoma mansoni. The data set is described as follows: Antischistosomal activity against Schistosoma mansoni couples at 10 uM measured upto 72 hrs by bright field microscopy. The format is functional, organism-based.
Data set [35] has as its system Schistosoma mansoni. Nature of the data set: Antischistosomal activity against Schistosoma mansoni couples assessed as decrease in parasite vitality at 10 uM measured upto 72 hrs by bright field microscopy. The format is functional.
The test system of data set [36] is Schistosoma mansoni. The data set is described as follows: Antischistosomal activity against Schistosoma mansoni couples assessed as dead worms at 25 uM measured upto 72 hrs by bright field microscopy. In kind it is functional.
The subject of data set [37] is Schistosoma mansoni. Nature of the data set: Antischistosomal activity against Schistosoma mansoni couples assessed as edematous swelling of gut at 25 uM measured upto 72 hrs by bright field microscopy. The format is functional, organism-based.
Data set [38] relates to Schistosoma mansoni. The data set is described as follows: Antischistosomal activity against Schistosoma mansoni couples assessed as inhibition of eggs production at 10 uM measured upto 72 hrs by bright field microscopy. The format is functional, organism-based.
For data set [39], the system named is Schistosoma mansoni. The data set is described as follows: Antischistosomal activity against Schistosoma mansoni couples assessed as reduction in pairing stability at 10 uM measured upto 72 hrs by bright field microscopy. The format is functional, organism-based.
In data set [40] the test system is HepG2. Nature of the data set: Cytotoxicity against human HepG2 cells assessed as reduction in cell vaibility at 25 uM by WST-1 assay. In kind it is toxicity, cell-based. To be noted: hepg2, 25 µM.
The subject of data set [41] is LS174T. Nature of the data set: Cytotoxicity against human LS174T cells assessed as reduction in cell vaibility at 25 uM by WST-1 assay. The format is toxicity, cell-based.

In the case of `CCN(CC)C(=S)SCc1ccccc1`, the Activity with Schistosoma mansoni [1] is listed as 100%; in the data set with Schistosoma mansoni [2] it was 100%; in the data set with Schistosoma mansoni [3], 50%; in the data set on Schistosoma mansoni [4], 30%; with HepG2 [5], “Toxic”; with LS174T [6], “Toxic”.
As for `CCN(CC)C(=S)SCc1ccc(SC)cc1`, the result in the data set on Schistosoma mansoni [7], in the data set on Schistosoma mansoni [8], in the data set on Schistosoma mansoni [9], in the data set on Schistosoma mansoni [10] and in the data set with Schistosoma mansoni [11] was Active. Further, the Activity entry in the data set with HepG2 [12] and in the data set with LS174T [13] was “Non-Toxic” throughout.
In the case of `Cl.S=C(SCc1ccccc1)N1CCNCC1`, the Activity in the data set on Schistosoma mansoni [14] was ~35%; with Schistosoma mansoni [3], “>=55%”; with HepG2 [5], “Toxic”; in the data set with LS174T [6], “Toxic”. Also, the outcome in the data set on Schistosoma mansoni [15] and with Schistosoma mansoni [16] was Active.
Regarding `O=[N+]([O-])c1ccc(CSC(=S)N2CCN(S(=O)(=O)c3ccccc3)CC2)cc1`, the Activity entry is “Toxic” in the data set with HepG2 [17]; “Toxic” with LS174T [18]; 50% in the data set with Schistosoma mansoni [20]; 90% in the data set with Schistosoma mansoni [21]; 20% in the data set with Schistosoma mansoni [22]; 40% in the data set on Schistosoma mansoni [23]. Besides, the Activity in the data set on Schistosoma mansoni [30] amounted to 50%. The result in the data set with Schistosoma mansoni [19], with Schistosoma mansoni [24], with Schistosoma mansoni [25], with Schistosoma mansoni [26] and with Schistosoma mansoni [31] was Active. The outcome with Schistosoma mansoni [27], in the data set on Schistosoma mansoni [28] and in the data set on Schistosoma mansoni [29] was inactive.
As for `CC(C)NC(=O)CN1CCN(C(=S)SCc2ccc([N+](=O)[O-])cc2)CC1`, the outcome in the data set with Schistosoma mansoni [32] and in the data set on Schistosoma mansoni [33] was Active. The result in the data set on Schistosoma mansoni [34] was inactive.
On to `C[C@H](N)C(=O)N1CCN(C(=S)SCc2ccc([N+](=O)[O-])cc2)CC1.Cl`, for which the Activity in the data set on Schistosoma mansoni [4] is 65%; in the data set with HepG2 [17], “Toxic”; in the data set on LS174T [18], “Toxic”; in the data set with Schistosoma mansoni [36], “<=25%”; in the data set with HepG2 [40] it was “Toxic”; in the data set with LS174T [41], “Toxic”. Moreover, the result in the data set on Schistosoma mansoni [32], with Schistosoma mansoni [35], in the data set with Schistosoma mansoni [37], in the data set on Schistosoma mansoni [38] and in the data set on Schistosoma mansoni [39] was Active. In the data set on Schistosoma mansoni [19], the result was inactive.
